This is an account of results in ChEMBL document CHEMBL5126547, “Inhibition of the drug efflux activity of Ptch1 as a promising strategy to overcome chemotherapy resistance in cancer cells” (Eur J Med Chem, 2022).

Data set [1] addresses T1, Protein patched homolog 1 (Homo sapiens) (UniProt Q13635).
T1 sequence (whole entry): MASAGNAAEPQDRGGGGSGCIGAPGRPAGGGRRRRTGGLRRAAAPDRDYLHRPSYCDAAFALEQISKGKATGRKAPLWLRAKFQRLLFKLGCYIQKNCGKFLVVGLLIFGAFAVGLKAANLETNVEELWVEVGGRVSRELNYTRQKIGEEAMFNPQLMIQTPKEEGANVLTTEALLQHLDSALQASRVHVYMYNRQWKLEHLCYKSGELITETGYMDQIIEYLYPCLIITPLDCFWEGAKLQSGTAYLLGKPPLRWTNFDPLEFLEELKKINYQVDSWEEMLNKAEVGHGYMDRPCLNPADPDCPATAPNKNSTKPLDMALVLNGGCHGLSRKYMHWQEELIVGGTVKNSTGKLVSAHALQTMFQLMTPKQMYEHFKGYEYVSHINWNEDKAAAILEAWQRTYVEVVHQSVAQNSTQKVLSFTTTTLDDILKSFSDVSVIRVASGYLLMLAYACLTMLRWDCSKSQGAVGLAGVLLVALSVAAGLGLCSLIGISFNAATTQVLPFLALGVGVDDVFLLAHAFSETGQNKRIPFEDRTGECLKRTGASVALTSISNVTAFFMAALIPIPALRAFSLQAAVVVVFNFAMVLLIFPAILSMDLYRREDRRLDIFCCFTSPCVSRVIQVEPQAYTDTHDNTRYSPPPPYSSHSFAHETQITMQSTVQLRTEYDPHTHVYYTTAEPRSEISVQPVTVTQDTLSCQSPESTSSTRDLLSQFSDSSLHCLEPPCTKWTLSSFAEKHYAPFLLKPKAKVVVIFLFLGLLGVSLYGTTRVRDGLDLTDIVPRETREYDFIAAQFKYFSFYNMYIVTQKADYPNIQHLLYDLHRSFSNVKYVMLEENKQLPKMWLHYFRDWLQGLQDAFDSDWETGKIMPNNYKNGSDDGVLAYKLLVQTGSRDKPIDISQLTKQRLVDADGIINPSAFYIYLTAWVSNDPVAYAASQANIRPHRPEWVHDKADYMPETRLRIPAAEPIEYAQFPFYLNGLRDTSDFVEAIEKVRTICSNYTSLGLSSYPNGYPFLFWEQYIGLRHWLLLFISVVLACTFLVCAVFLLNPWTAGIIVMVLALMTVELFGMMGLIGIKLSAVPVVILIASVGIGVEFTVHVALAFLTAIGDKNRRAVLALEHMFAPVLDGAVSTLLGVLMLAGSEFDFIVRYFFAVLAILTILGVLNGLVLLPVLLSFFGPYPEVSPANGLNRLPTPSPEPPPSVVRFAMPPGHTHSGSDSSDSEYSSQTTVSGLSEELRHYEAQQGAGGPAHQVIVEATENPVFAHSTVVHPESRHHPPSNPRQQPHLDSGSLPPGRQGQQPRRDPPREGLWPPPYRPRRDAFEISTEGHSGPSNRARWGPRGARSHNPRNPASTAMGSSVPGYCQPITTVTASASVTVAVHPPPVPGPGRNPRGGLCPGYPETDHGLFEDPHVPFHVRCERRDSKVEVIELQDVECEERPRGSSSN
As to the kind of experiment: Inhibition of Ptch1 in human adrenocortical carcinoma cells assessed as fold increase doxorubicin cytotoxicity. In kind it is cell-based. The note with it: Adrenocortical carcinoma cell.

The nature of data set [2]: Metabolic stability in rat liver microsomes assessed as half life. Type of data set: ADME, Microsome. (Liver microsomes are vesicles of endoplasmic reticulum, rich in cytochrome P450 enzymes.)
Data set [3] is described as follows: Lipophilicity, logD of compound. Type of data set: physicochemical. The note with it: octanol/water.
The target of data set [4] is T1, Protein patched homolog 1 (Homo sapiens). As to the kind of experiment: Inhibition of Ptch1 in human Melanoma cells assessed as fold increase doxorubicin cytotoxicity. Type of data set: cell-based. The note with it: Melanoma cell.
For data set [5] the target is unchanged. As to the kind of experiment: Inhibition of Ptch1 in human Melanoma cells assessed as fold increase cisplatin cytotoxicity. Type of data set: cell-based. Conditions: Melanoma cell.
The target is the same in data set [6]. Briefly: Inhibition of Ptch1 in human Melanoma cells assessed as fold increase vemurafenib cytotoxicity. Type of data set: cell-based. The note with it: Melanoma cell.
Data set [7] can be described thus: In vivo inhibition of Ptch1 in vemurafenib-resistant human A-375 BRAF V600E cells xenografted in Nu/Nu NMRI mouse assessed as fold increase in vemurafenib anticancer activity at 5 mg/kg, ip administered 5 days a week measured on after 23 days of first treatment relative to control. In kind it is functional. The note with it: time 5 day. For orientation: In xenograft studies the graft and the host belong to different species.

Data set [8] is described as follows: Inhibition of Ptch1 in vemurafenib-resistant human A-375 BRAF V600E cells assessed as fold increase in cisplatin cytotoxicity.
Data set [9] in a line: Inhibition of Ptch1 in vemurafenib-resistant human A-375 BRAF V600E cells assessed as fold increase in doxorubicin cytotoxicity.

Turning to `COc1ccc(CCN2CCC(Nc3nc4ccccc4n3Cc3ccc(F)cc3)CC2)cc1` [ASTEMIZOLE], the fold change (FC) in [1] was determined as 10. Moreover, the half-life in data set [2] is greater than 60 min. In addition, the logD in data set [3] is 2.9.
Turning to `CSc1ccc2c(c1)C(N1CCN(C)CC1)Cc1ccccc1S2` (stereo unspecified) [METITEPINE], the fold change (FC) was 6.6 in [1]; 5.8 in [4]; 3 in data set [5]; 4 in data set [6]; 10 in data set [7]; 3.6 in [8]. Further, the “fold change (FC)” value in data set [9] worked out at 15. Further, the half-life in data set [2] came out at 31 min. In data set [3], this compound came in with a pH-dependent lipophilicity (logD) of 3.5.
In the case of `COc1cc(C)c(CC/C(C)=C/Cc2cc(O)ccc2O)c(C)c1C` [PANICEIN A HYDROQUINONE], the fold change (FC) is 128 in data set [1], 10 in [7] and 68 in [9]. Further, the half-life in [2] was determined as 1 min.

Broadly, the half-life is the time in which the quantity being followed falls by half. A word on the logD: it is lipophilicity at a set pH, counting ionised and neutral species. Read a low logD as a more hydrophilic compound.
